For assay [1], the target named is T1, BesD (Streptantibioticus cattleyicolor, UniProt G8XHD5).
T1 sequence (G8XHD5 1-242): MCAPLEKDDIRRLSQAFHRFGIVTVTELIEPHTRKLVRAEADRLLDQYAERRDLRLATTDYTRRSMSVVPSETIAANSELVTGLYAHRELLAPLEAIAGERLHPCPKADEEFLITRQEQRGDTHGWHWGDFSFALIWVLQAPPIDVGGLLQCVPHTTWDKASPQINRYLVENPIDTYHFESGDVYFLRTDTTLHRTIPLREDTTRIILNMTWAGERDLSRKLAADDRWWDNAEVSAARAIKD
In words: UV-Vis MLCT band. Conditions: Fe(II) added; co-substrate. The class given is binding.

Assay [2] has as its target T1, BesD. The assay can be described thus: UV-Vis MLCT shift. The note with it: BesD-Fe-2OG complex with lysine; anaerobic UV-Vis. The format is biochemical.
Assay [3] concerns the target T1, BesD. In words: UV-Vis MLCT shift. The note with it: BesD-Fe-2OG complex with lysine; anaerobic UV-Vis. The format is biochemical. This is another data set of the same source.
The target in assay [4] is T1, BesD. In words: biochemical.

pKd: −log10 of the molar value.

Broadly, the pKd is the Kd on a negative log10 scale, so that one unit is a factor of ten. A low value points to a large Kd.

On to `O=C(O)CCC(=O)C(=O)O` [2-oxoglutarate], for which the “UV-Vis MLCT band” value on BesD [1] is “Upon the addition of Fe^II and 2OG to BesD, an MLCT band forms”.
In the case of `[N-]=[N+]=[N-]` [azide], the “UV-Vis MLCT shift; UPLC-MS/MS of azidation product” value on BesD [2] was “perturbations of the MLCT band with azide and bromide are minimal until the addition of lysine”.
Take `Br` [bromide]: on BesD [3], the “UV-Vis MLCT shift; UPLC-MS/MS of bromination product” value is “perturbations of the MLCT band with azide and bromide are minimal until the addition of lysine”.
Molecule `NCCCC[C@H](N)C(=O)O` [lysine] gave a pKd at BesD [4] of 4.30.
